Key:
[1] = target: T1, human cloned CHRM5 receptor (M5_CHO) (Homo sapiens, UniProt P08912); assay: CHRM5 Ca++ Flux Assay (agonist mode, FDSS 7000EX); assay type: cell-based; settings: for Emax: Percent Activity measured to EC100 of Carbachol, read-out: M5 FDSS PA; for EC50: agonist mode, geometric mean if tested more than once, read-out: M5 FDSS EC50
T1 construct: expressed in transfected cells; host or cells: CHO (M5_CHO)
T1 sequence (P08912 1-532): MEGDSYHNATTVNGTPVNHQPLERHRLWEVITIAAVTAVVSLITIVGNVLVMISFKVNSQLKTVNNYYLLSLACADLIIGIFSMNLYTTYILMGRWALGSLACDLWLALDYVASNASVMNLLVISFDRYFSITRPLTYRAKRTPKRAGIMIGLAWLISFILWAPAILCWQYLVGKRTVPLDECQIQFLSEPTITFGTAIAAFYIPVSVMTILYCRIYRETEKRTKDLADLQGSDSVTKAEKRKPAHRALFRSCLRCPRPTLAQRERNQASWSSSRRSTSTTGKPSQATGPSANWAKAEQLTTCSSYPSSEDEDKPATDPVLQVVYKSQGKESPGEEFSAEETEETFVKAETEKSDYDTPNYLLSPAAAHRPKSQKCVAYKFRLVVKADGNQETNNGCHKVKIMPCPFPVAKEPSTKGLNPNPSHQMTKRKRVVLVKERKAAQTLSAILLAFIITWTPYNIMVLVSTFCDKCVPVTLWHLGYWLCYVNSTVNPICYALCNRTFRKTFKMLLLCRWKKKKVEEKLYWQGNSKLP
Method in brief: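 Fluorescent intracellular Ca++ signal, recorded for 3 min, served as read-out for CHO-K1 cells stably carrying human M3 or M5 receptor. Triplicate 11-point dose responses were averaged and fitted to a four-parameter model, with percent activity referenced to the carbachol EC100.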

[2] = target: T2, Cloned human M1 receptor (CHRM1) stably expressed in HEK293 cells (Homo sapiens, UniProt P11229); assay: CHRM1 Ca++ Flux Assay (agonist mode, FDSS 7000EX); assay type: cell-based; settings: for Emax: HEK293, Percent Activity, read-out: M1 FDSS PA; for EC50: geometric mean if tested more than once
T2 construct: expressed in transfected cells; host or cells: HEK293
T2 sequence (P11229 1-460): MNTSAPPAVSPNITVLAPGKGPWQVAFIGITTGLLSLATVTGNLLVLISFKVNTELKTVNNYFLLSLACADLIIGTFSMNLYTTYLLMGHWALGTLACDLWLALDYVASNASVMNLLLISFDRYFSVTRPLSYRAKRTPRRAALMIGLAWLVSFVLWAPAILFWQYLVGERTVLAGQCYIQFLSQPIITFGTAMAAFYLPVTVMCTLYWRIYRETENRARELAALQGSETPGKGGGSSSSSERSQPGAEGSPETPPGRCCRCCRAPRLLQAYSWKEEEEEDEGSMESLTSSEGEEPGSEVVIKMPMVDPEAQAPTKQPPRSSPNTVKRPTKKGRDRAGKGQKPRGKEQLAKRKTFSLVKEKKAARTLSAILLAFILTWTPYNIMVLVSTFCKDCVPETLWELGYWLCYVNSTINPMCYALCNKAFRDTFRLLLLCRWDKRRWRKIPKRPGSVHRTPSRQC
Method in brief: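 Compounds tested as agonists at 11 concentrations in triplicate, with calcium traces captured over 3 minutes. Cells were HEK293 with stable human CHRM1 expression, plated overnight at 25K/well and loaded with calcium dye. Responses normalized to carbachol EC100 and fitted by four-parameter nonlinear regression.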

Emax [1] | EC50 [1] | Emax [2] | EC50 [2] | SMILES
0% | > 25 µM | 0% | > 25 µM | COc1ccccc1C1CCN([C@@H]2CCC3(C2)CN(c2nc(C)ns2)C3)CC1 [Example 3M, (R)-5-(6-(4-(2-methoxyphenyl)piperidin-1-yl)-2-azaspiro[3.4]octan-2-yl)-3-methyl-1,2,4-thiadiazole]
0% | > 25 µM | 61% | 0.102 µM | Fc1cncc(N2CC3(CC[C@@H](N4CCC(c5ccccc5C5CCOCC5)CC4)C3)C2)c1 [Example 5AA, (R)-2-(5-fluoropyridin-3-yl)-6-(4-(2-(tetrahydro-2H-pyran-4-yl)phenyl)piperidin-1-yl)-2-azaspiro[3.4]octane]
0% | > 25 µM | 72% | 0.201 µM | c1ccc(C2CCN([C@@H]3CCC4(C3)CN(c3cncnc3)C4)CC2)c(C2CCOCC2)c1 [Example 5BB, (R)-2-(pyrimidin-5-yl)-6-(4-(2-(tetrahydro-2H-pyran-4-yl)phenyl)piperidin-1-yl)-2-azaspiro[3.4]octane]
0% | > 25 µM | 36% | 0.335 µM | Fc1ccc(N2CC3(CC[C@@H](N4CCC(c5ccccc5C5CCOCC5)CC4)C3)C2)cn1 [Example 5CC, (R)-2-(6-fluoropyridin-3-yl)-6-(4-(2-(tetrahydro-2H-pyran-4-yl)phenyl)piperidin-1-yl)-2-azaspiro[3.4]octane]
0% | > 25 µM | 0% | 1.26 µM | COc1ccccc1C1CCN([C@@H]2CCC3(C2)CN(c2cnc(C)cn2)C3)CC1 [Example 5DD, (R)-6-(4-(2-methoxyphenyl)piperidin-1-yl)-2-(5-methylpyrazin-2-yl)-2-azaspiro[3.4]octane]
0% | > 25 µM | 34% | 0.537 µM | Cc1nccnc1N1CC2(CC[C@@H](N3CCC(c4ccccc4OCC(C)(C)O)CC3)C2)C1 [Example 5T, (R)-2-methyl-1-(2-(1-(2-(3-methylpyrazin-2-yl)-2-azaspiro[3.4]octan-6-yl)piperidin-4-yl)phenoxy)propan-2-ol]
0% | > 25 µM | 2% | 0.672 µM | CC(C)(O)COc1ccccc1C1CCN([C@@H]2CCC3(C2)CN(c2ncncn2)C3)CC1 [Example 5U, (R)-1-(2-(1-(2-(1,3,5-triazin-2-yl)-2-azaspiro[3.4]octan-6-yl)piperidin-4-yl)phenoxy)-2-methylpropan-2-ol]
0% | > 25 µM | 60% | 0.215 µM | COc1ccc(F)cc1C1CCN([C@@H]2CCC3(C2)CN(c2ccnnc2)C3)CC1 [Example 5V, (R)-6-(4-(5-fluoro-2-methoxyphenyl)piperidin-1-yl)-2-(pyridazin-4-yl)-2-azaspiro[3.4]octane]
0% | > 25 µM | 60% | 0.052 µM | Fc1cccc(C2CCN([C@@H]3CCC4(C3)CN(c3cncnc3)C4)CC2)c1OC1COC1 [Example 5W, (R)-6-(4-(3-fluoro-2-(oxetan-3-yloxy)phenyl)piperidin-1-yl)-2-(pyrimidin-5-yl)-2-azaspiro[3.4]octane]
0% | > 25 µM | 0% | > 25 µM | COCCOc1ccccc1C1CCN([C@@H]2CCC3(C2)CN(c2cccnn2)C3)CC1 [Example 5X, (R)-6-(4-(2-(2-methoxyethoxy)phenyl)piperidin-1-yl)-2-(pyridazin-3-yl)-2-azaspiro[3.4]octane]
0% | > 25 µM | 0% | > 25 µM | COCCOc1ccccc1C1CCN([C@@H]2CCC3(C2)CN(c2cnc(C)cn2)C3)CC1 [Example 5Y, (R)-6-(4-(2-(2-methoxyethoxy)phenyl)piperidin-1-yl)-2-(5-methylpyrazin-2-yl)-2-azaspiro[3.4]octane]
0% | > 25 µM | 21% | 0.413 µM | COCCOc1ccccc1C1CCN([C@@H]2CCC3(C2)CN(c2ccnnc2)C3)CC1 [Example 5Z, (R)-6-(4-(2-(2-methoxyethoxy)phenyl)piperidin-1-yl)-2-(pyridazin-4-yl)-2-azaspiro[3.4]octane]
0% | > 25 µM | 90% | 0.012 µM | O=C(C1COC1)N1CC2(CC[C@@H](N3CCC(c4ccc(F)cc4OC(F)F)CC3)C2)C1 [Example 6B, (R)-(6-(4-(2-(difluoromethoxy)-4-fluorophenyl)piperidin-1-yl)-2-azaspiro[3.4]octan-2-yl)(oxetan-3-yl)methanone]
0% | > 25 µM | 18% | 0.018 µM | CC(C)Oc1cc(F)ccc1C1CCN([C@@H]2CCC3(C2)CN(C(=O)C2COC2)C3)CC1 [Example 6D, (R)-(6-(4-(4-fluoro-2-isopropoxyphenyl)piperidin-1-yl)-2-azaspiro[3.4]octan-2-yl)(oxetan-3-yl)methanone]
0% | > 25 µM | 67% | 0.12 µM | O=C(N1CC2(CC[C@@H](N3CCC(c4ccccc4C4CCOCC4)CC3)C2)C1)C1(F)CC1 [Example 6E, (R)-(1-fluorocyclopropyl)(6-(4-(2-(tetrahydro-2H-pyran-4-yl)phenyl)piperidin-1-yl)-2-azaspiro[3.4]octan-2-yl)methanone]
0% | > 25 µM | 75% | 0.009 µM | O=C(C1COC1)N1CC2(CC[C@@H](N3CCC(c4ccccc4OC4CC4)CC3)C2)C1 [Example 7A, (R)-(6-(4-(2-cyclopropoxyphenyl)piperidin-1-yl)-2-azaspiro[3.4]octan-2-yl)(oxetan-3-yl)methanone]
0% | > 25 µM | 78% | 0.015 µM | CC(C)(F)COc1ccccc1C1CCN([C@@H]2CCC3(C2)CN(C(=O)C2COC2)C3)CC1 [Example 7B, (R)-(6-(4-(2-(2-fluoro-2-methylpropoxy)phenyl)piperidin-1-yl)-2-azaspiro[3.4]octan-2-yl)(oxetan-3-yl)methanone]
0% | > 25 µM | 87% | 0.011 µM | O=C(C1COC1)N1CC2(CC[C@@H](N3CCC(c4ccccc4Oc4nccs4)CC3)C2)C1 [Example 7C, (R)-oxetan-3-yl(6-(4-(2-(thiazol-2-yloxy)phenyl)piperidin-1-yl)-2-azaspiro[3.4]octan-2-yl)methanone]
16% | 2.2 µM | 114% | 0.003 µM | N#CCCOc1ccccc1C1CCN([C@@H]2CCC3(C2)CN(C(=O)C2COC2)C3)CC1 [Example 7D, (R)-3-(2-(1-(2-(oxetane-3-carbonyl)-2-azaspiro[3.4]octan-6-yl)piperidin-4-yl)phenoxy)propanenitrile]
18% | 1.12 µM | 86% | 0.116 µM | O=C(C1COC1)N1CC2(CC[C@@H](N3CCC(c4ccccc4OCCOC(F)(F)F)CC3)C2)C1 [Example 7DD, (R)-oxetan-3-yl(6-(4-(2-(2-(trifluoromethoxy)ethoxy)phenyl)piperidin-1-yl)-2-azaspiro[3.4]octan-2-yl)methanone]
13% | 1.56 µM | 101% | 0.046 µM | O=C(C1COC1)N1CC2(CC[C@@H](N3CCC(c4ccccc4OC[C@@H]4CCOC4)CC3)C2)C1 [Example 7E, oxetan-3-yl((R)-6-(4-(2-(((R)-tetrahydrofuran-3-yl)methoxy)phenyl)piperidin-1-yl)-2-azaspiro[3.4]octan-2-yl)methanone]

SMILES | Emax [1] | EC50 [1] | Emax [2] | EC50 [2]
CC(C)(O)CCOc1ccccc1C1CCN([C@@H]2CCC3(C2)CN(C(=O)C2COC2)C3)CC1 [Example 7CC, (R)-(6-(4-(2-(3-hydroxy-3-methylbutoxy)phenyl)piperidin-1-yl)-2-azaspiro[3.4]octan-2-yl)(oxetan-3-yl)methanone] | 9% | 2.01 µM | 94% | 0.006 µM

Source: patent US12122761B2, “2-azaspiro[3.4]octane derivatives as M4 agonists” (NOVARTIS AG, priority 2019, dated 2024)
